These are literature values, as cited in US20020150627A1, “Composition containing creatine and phosphorus” (priority 2001, published 2002).

Data set [1] relates to subjects. The conditions noted are these: for Increase power output compared to placebo according to Wallace et al: four times daily for 5 days.
The test system of data set [2] is skeletal muscle. The conditions noted are these: 4×5 gram creatine per day for five to six days.
The mark [3] stands for this setting: 1000 mg four times daily for 5 days.

Read-outs that look alike come from different tables or passages of the source.

As for `O=P([O-])([O-])[O-].[Na+].[Na+].[Na+]` [Phosphate, tribasic sodium phosphate], in data set [1] (setting [3]), the VO2 max elevated is given as 8% and the “Ventilatory anaerobic threshold elevated” value is 10%. In addition, in data set [1], the “Increase power output compared to placebo according to Wallace et al” value (“Increase power output” for short) was 3%. The “Increase power output” value in data set [1] (listed as phosphate) is listed as 3%.

As to `CN(CC(=O)O)C(=N)N.O` [creatine monohydrate], the “Increase power output” value is listed as 3% in data set [1] (listed as Creatine, monohydrate) and 3% in data set [1] (listed as creatine, monohydrate). In data set [2], the “Increase of skeletal muscle creatine content (average)” value is 20%. Moreover, in data set [2], the “Phosphocreatine share of the increase in skeletal muscle creatine content” value is recorded as 20%.
